From patent US20200330456A1, “NOVEL APPLICATION OF GZD824 AND PHARMACEUTICALLY ACCEPTABLE SALTS THEREOF IN TREATING DISEASES” (HEALTHQUEST PHARMA INC., priority 2016, published 2020)

Legend:
[1] = test system: NALM6 cells; assay: Apoptosis kit (ANNEXIN V, PI) flow cytometry, NALM6; assay type: cell-based; conditions: 24 hours, GZD824 vs KX2-391 vs HO-3867 vs DMSO
Experimental: 1.2 After treating NALM6 and SUPB15 cells respectively with GZD824 (3 μM, 1 μM) and DMSO of different concentrations for 24 hours, apoptosis was detected using an apoptosis kit (ANNEXIN V, PI). Please refer to FIG. 2 for the results. After treating the two types of cells NALM6 and SUPB15 respectively with GZD824 of different concentrations (3 μM/L, 1 μM/L) for 24 hours, the cells were stained with the apoptosis kit (ANNEXIN V, PI), and apoptosis was detected with flow cytometry.
5.3 After treating NALM6 cells with GZD824, SRC suppressor (KX2-391), STAT3 suppressor (HO-3867) or DMSO for 24 hours, apoptosis was detected by using the apoptosis kit (ANNEXIN V, PI). The ratio of ANNEXIN V positive cells was analyzed by statistical methods. […] For the experimental results, please refer to FIG. 15.

[2] = test system: human primary leukemia cells from P #1 PDX mouse spleen; assay: Apoptosis of human primary leukemia cells from P #1 PDX mouse spleen, with and without IGF-1; assay type: cell-based; conditions: P #1 PDX spleen cells; GZD824 1 μM/L and IGF-1 10 ng/mL, 24 hours
Experimental: 6.2 Human primary leukemia cells were extracted from P #1 PDX mouse spleen and co-cultured with DMSO, GZD824 (1 μM/L), IGF-1 (10 ng/mL), or GZD824 (1 μM/L) and IGF-1 (10 ng/mL) for 24 hours. The ratios of ANNEXIN V positive cells were analyzed by statistical methods. […] Please refer to FIG. 17 for the experimental results.

Molecule | ratio of apoptosis (ANNEXIN V positive cells), comparison of inhibitors [1] | effect of added IGF-1 on GZD824-induced apoptosis [2]
CC1(C)C=C(CN2C/C(=C\c3ccc(F)cc3)C(=O)/C(=C/c3ccc(F)cc3)C2)C(C)(C)N1O [HO-3867, reference compound] | almost the same | 
O=C(Cc1ccc(-c2ccc(OCCN3CCOCC3)cc2)cn1)NCc1ccccc1 [KX2-391, reference compound] | almost the same | 
IGF-1: cytokine IGF-1, added at 10 ng/mL |  | partly reverse the effect of GZD824 on apoptosis
